EP2686338B1, “FUNCTIONALIZED BIOMATERIALS FOR TISSUE REGENERATION” (Nanomed3d S.r.l., priority 2011, dated 2018)
“Also recorded” adds a separate entry of the source. Residues, ends and D or L forms follow the SMILES beside them.

Assays:
mouse NSC = assay: NSC differentiation on exposure to soluble heptapeptides (immunofluorescence); type: cell-based; conditions: 12 DIV; peptide 0.1 mg/ml in media; Cultrex and Laminin coated wells; vs untreated NSCs, p<0.05
Method: In vitro tests were performed as previously described (8), in order to assess whether the heptapeptides obtained of the present invention influence NSCs differentiation.
Murine cells (at a concentration of 2x10^4 cells/cm^2) were seeded in each well (96 multi-well plate) previously coated with Cultrex-BME® substrate (R&D systems) (1:100 dilution in basal medium, overnight incubation) or with Laminin (Roche) (1:5 dilution in PBS 1x, pH 7.4, overnight incubation).
Initially, cells were cultured with basal medium supplemented with βFGF (10 ng/ml), added to enhance neuronal progeny differentiation. At 3 days in vitro (DIV), βFGF medium was replaced with Leukemia Inhibitory Factor (LIF, Chemicon) (20 ng/ml) and Brain Derived Neurotrophic Factor (BDNF, Peprotech) (20 ng/ml). Fresh medium was added every three days. The chosen peptides were dissolved in all cell culture media (but not in the coatings) at a concentration of 0.1 mg/ml.
Immunofluorescence tests were performed for assaying the phenotypes of the differentiated murine NSC progenies. The following antibodies were used: rabbit polyclonal against GFAP (1:500, DakoCytomation) for astrocytes and mouse monoclonal against βIII-Tubulin (1:500, Covance) for neurons. Secondary Abs were Goat anti Mouse Alexa 488 (1:1000, Molecular Probes), Goat anti Mouse Cy3 (1:1000, Jackson Immunoresearch), Cell nuclei were counterstained with DAPI (Molecular Probes). Quantitative analyses were performed by counting 100-300 cells for each of 9 randomly chosen fields over a total of 3 independent experiments.
Values, reported as means ± standard error of the mean (Figure 1A).

murine NSCs [1] = assay: Immunofluorescence of differentiated NSC progeny on scaffolds, murine NSCs; type: cell-based; conditions: 1% scaffold; compared to Cultrex positive control
Method: (§1) In vitro tests were performed as previously described (8), in order to assess whether the biomaterials (assembled hydrogels) obtained with the SAPs of the present invention influenced NSCs adhesion, survival and/or differentiation. SAPeptides (30 µl for each well at a concentration of 10 mg/ml) were assembled into 96 multiwells two hours before cell. Cells (at a concentration of 2x10^4 cells/cm^2) were seeded on the top-surface of each assembled scaffold. Initially, cells were cultured with basal medium supplemented with βFGF (10 ng/ml), added to enhance neuronal progeny differentiation. At 3 days in vitro (DIV), βFGF medium was replaced with Leukemia Inhibitory Factor (LIF, Chemicon) (20 ng/ml) and Brain Derived Neurotrophic Factor (BDNF, Peprotech) (20 ng/ml). Fresh medium was added every three days. For both viability and differentiation assays positive and negative controls consisted of Cultrex-BME® substrate (R&D systems) (1:100 dilution in basal medium) and untreated bottom well surfaces respectively. Cell viability was quantified via CellTiter 96® Aqueous Proliferation Assay (Promega) at 7 DIV as recommended in the Promega protocol. After calibrating the linear response between the cell number and absorbance values, proliferated cell populations were quantified (n=5) by using a Vmax microplate reader (Molecular Devices) at 490nm wavelength. Values, reported as means ± standard error of the mean, were blanked to their respective controls consisting of same substrates and cell culture media without cells.
(§2) Immunofluorescence tests were performed for assaying the phenotypes of the differentiated human and murine NSC progenies. In the case of KLP and Ac-KLP just murine NSC have been used. Ac-KLP and KLP scaffolds were prepared at different concentrations in order to display three different stiffness values (viz. 100, 500 and 1000 Pa). This was done to assess the influence of scaffold concentration (and consequently its stiffness) over NSC differentiation. All the other peptides were tested at 1% v/w concentration instead. The following antibodies were used: rabbit polyclonal against GFAP (1:500, DakoCytomation) for astrocytes, mouse monoclonal against βIII-Tubulin (1:500, Covance) for neurons, mouse monoclonal against GalC (1:200, Chemicon) and O4 (1:200, Chemicon) for oligodendrocyes. Secondary Abs were Goat anti Mouse Alexa 488 (1:1000, Molecular Probes), Goat anti Mouse Cy3 (1:1000, Jackson Immunoresearch), Goat anti Rabbit Cy3 (1:1000, Jackson Immunoresearch). Cell nuclei were counterstained with DAPI (Molecular Probes). Quantitative analyses were performed by counting 100-300 cells for each of 9 randomly chosen fields over a total of 3 independent experiments. Phase contrast and fluorescence images of the adhering cells were acquired via Zeiss microscopes Axioplan 2 and ApoTome System at one week after seeding.

human NSCs [2] = assay: Imaging and cell proliferation (MTS) assay on assembled scaffolds, human NSCs; type: cell-based
Method: as §1

human NSCs [3] = assay: Immunofluorescence of differentiated NSC progeny on scaffolds, human NSCs; type: cell-based; conditions: 1% scaffold; compared to Cultrex positive control
Method: as §1
as §2, with “Cell nuclei were counterstained with DAPI (Molecular Probes).” left out

[4] = Rheology (frequency, time and strain sweeps); type: physicochemical
Method: Rheological properties of the self-assembling peptides of the invention were determined using a controlled stress TA Instruments AR-2000ex rheometer (TA Instruments). A cone-and-plate geometry (acrylic cone diameter, 20 mm; angle, 1°; truncation gap 34 µm) was used. Preliminary strain sweeps were performed for each sample to define the linear viscoelastic region, thus ensuring that moduli were independent of strain. Time sweeps, after addition of PBS (1x) were recorded at 25 C (angular frequency ω=1 Hz) and continued till G' plateaued. Frequency sweeps, both for peptide water solutions and for self-assembled scaffolds, were performed at 25 C with the instrument in oscillatory mode at controlled strain of 1 %. Final strain sweeps was performed at 1Hz oscillatory frequency and at 25 C: onset point of failure was calculated by linear interpolation and subsequent determination of the intersection of the G' modes within the linear region and at material failure respectively.

murine NSCs [5] = assay: Imaging and cell proliferation (MTS) assay on assembled scaffolds, murine NSCs; type: cell-based
Method: as §1

Question: Which “percentage of differentiated neurons (Beta III Tubulin staining)” value (shortened to “percentage of differentiated neurons”) (mouse NSC) does the source give for `CC(C)C[C@H](NC(=O)[C@@H]1CCCN1C(=O)[C@H](C)NC(=O)[C@H](CCCNC(=N)N)NC(=O)[C@@H](NC(=O)[C@H](CCC(=O)O)NC(=O)CN)[C@@H](C)O)C(N)=O` [#GET, NH4-GETRAPL-CONH2] (H-GETRAPL-NH2) here?
Answer: The value was “significant increase”.

Question: With `CC[C@H](C)[C@H](NC(=O)[C@H](C)NC(=O)[C@@H](N)Cc1c[nH]cn1)C(=O)N[C@@H](Cc1ccc(O)cc1)C(=O)N1CCC[C@H]1C(=O)N[C@@H](CCCNC(=N)N)C(=O)N[C@@H](Cc1c[nH]cn1)C(N)=O` [#HAI, NH2-HAIYPRH-CONH2] as the molecule, how does the “percentage of differentiated neurons” value (mouse NSC) read?
Answer: Its value is “significant increase”.

Question: With `CC(C)C[C@H](NC(=O)[C@@H](N)CCCCN)C(=O)N1CCC[C@H]1C(=O)NCC(=O)N[C@@H](Cc1c[nH]c2ccccc12)C(=O)N[C@@H](CO)C(=O)NCC(N)=O` [#KLP, NH2-KLPGWSG-CONH2] (H-KLPGWSG-NH2) as the molecule, how does the “percentage of differentiated neurons” value (mouse NSC) read?
Answer: The value was “significant increase; also recorded: Highest increase of the neuronal phenotype”.

Question: Which results are given for `CC(C)C[C@H](NC(=O)CNC(=O)CNC(=O)CNC(=O)[C@@H]1CCCN1C(=O)[C@@H]1CCCN1C(=O)[C@@H](NC(=O)[C@H](CCCNC(=N)N)NC(=O)[C@H](CCC(N)=O)NC(=O)[C@H](C)NC(=O)[C@@H](N)Cc1ccccc1)C(C)C)C(=O)N[C@@H](CC(=O)O)C(=O)N[C@@H](CC(C)C)C(=O)N[C@@H](CCCCN)C(=O)N[C@@H](CC(C)C)C(=O)N[C@@H](CC(=O)O)C(=O)N[C@@H](CC(C)C)C(=O)N[C@@H](CCCCN)C(=O)N[C@@H](CC(C)C)C(=O)N[C@@H](CC(=O)O)C(=O)N[C@@H](CC(C)C)C(=O)N[C@@H](CCCCN)C(N)=O` [FAQ, NH2-FAQRVPP-GGG-LDLKLDLKLDLK-CONH2] (H-FAQRVPPGGGLDLKLDLKLDLK-NH2)?
Answer: number of neurons (murine NSCs [1]): significantly higher; number of oligodendrocytes (murine NSCs [1]): significantly higher; cell morphology, adhesion and spreading (human NSCs [2]; 7 DIV on assembled hydrogels): spread and branched cells; cell viability (MTS, cell population) (human NSCs [2]; 7 DIV, scaffolds 10 mg/ml, vs control, P<0.03, n=5): significantly fostered cell viability; also recorded: cell population was bigger; number of neurons (human NSCs [3]): significantly higher; number of oligodendrocytes (human NSCs [3]): significantly higher; G' pre-assembling ([4]; average storage modulus of SAPeptide solution, 1% w/v, 1-100 Hz, before PBS): 6.66 Pa; G' post-assembling ([4]; average storage modulus of jellified scaffold, 1% w/v, 1-100 Hz, after PBS): 142.7 Pa; Onset point (% strain) ([4]; strain percentage at rupture, strain sweep at 1 Hz, 25 C): 25.43%; cell morphology, adhesion and spreading (murine NSCs [5]; 7 DIV on assembled hydrogels): spread and branched cells; cell viability (MTS, cell population) (murine NSCs [5]; 7 DIV, scaffolds 10 mg/ml, vs control, P<0.005, n=5): significantly fostered cell viability; also recorded: cell population was bigger
